# Results published in patent EP0012729A1, “Therapeutic compositions containing as active compound a substituted acetic acid or its salt” ("IBIS" ISTITUTO BIOCHIMICO SPERIMENTALE S.p.A., priority 1978, dated 1980).
# How the values were obtained:
# Wistar rats = assay: Choleretic activity in the rat, bile fistula method; assay type: in vivo; settings: for ml of bile flow ± s.e.: second series
# Source text: It is known that the primary effect of a choleretic agent is to increase the bile flow and the quantity of solid substances excreted with the bile. A good choleretic must provide this effect in a sufficiently intense and prolonged manner. In addition, as in the case of all drugs, it must have low acute toxicity and good general tolerability, but in particular must be free from toxic effects on the organ on which it is required to act, i.e. the liver, whether this is in a normal or pathological state. The analysis of the new product in comparison with the best known products for the same therapeutic use has therefore been focused on these aspects. The choleretic activity of the new product has been determined in the rat by using the bile fistula method. Wistar rats of both sexes and having a weight of between 180 and 240 g were used.
# The animals, which were kept fasting for 12 hours but with free access to water, were narcotised by ethyl urethane in a dose of 1 g/kg by intra peritoneal or intramuscular injection.
# After binding the animals to the retention bed, a median laparatomy was carried out, and when the bile duct had been isolated a cannula needle was inserted into it. A polythene tube was then inserted into those ani mals which were to receive the products intraduodenally, after which a su ture was carried out on the abdominal wall, and the bile was allowed to discharge for 30 minutes after inserting the cannula in the bile duct, so as to allow the discharge to become normal. The bile was then collec ted for one hour.
# Having determined the volume of bile discharged during this first hour of collection (base volume), the products under examination were administered at the predetermined doses and by the predetermined methods. The bile excreted by the individual animals was then collected over each hour for a further six hours.
# During the experiments, the animals were kept at ambient temperature of about 22°C, and at regular intervals of two hours received 10 ml/kg of physiological solution s.c.
# The liquids were administered at a temperature of 37°C.
# The bile flow and cholesterol excretion were determined on those bile fractions excreted by the animals over each hour starting from the base hour until the end of the experiment
# The dry residue (R.So) was determined on the bile fraction excreted during the base hour and on the total bile fractions excreted during the sub sequent hours. For practical reasons, the determination of the dry residue and of the cholesterol (carried out by the Sperry & Webb method) were carried out on the pool of bile excreted by the entire group of animals subjected to the same treatment instead of on the bile fractions excreted by the individual animals (which was sometimes insufficient for determining the cholesterol).
# In compiling the graphs, the differences between the choleresis in the treated animals and that in the controls was calculated over the considered time intervals, and expressed as a percentage of the base choleresis. For this calculation, the following formula was used: [formula] where Cn and C' represent the choleresis (in ml/kg/h for the bile flow, and in mg/kg/h for the dry residue) determined over the considered time interval for the group of treated animals and the group of controls respectively. Cb and C'b represent the base choleresis in the group of treated animals and group of controls respectively.
# This index was calculated as the time for halving the maximum choleresis increase recorded under their effect.
# [1] = Acute toxicity (DL50) in mus musculus; settings: in vivo
# Source text: The DL50 for the α-methyl-α-(3,4-dihydro-1-naphtyl)acetic acid (1.620) determined in the mus musculus had the following values: • DL50 by oral administration = 1663 (1451-1905) mg/kg • DL50 by i.^p. administration = 1383 (1226-1559) mg/kg
# [2] = Acute toxicity (DL50) in the rat; settings: in vivo
# Source text: The determination in the rat gave the following values: • DL50 by oral administration = 1720 (1520-1921) mg/kg • DL50 by i.p. administration = 1339 (1270-1744) mg/kg
# rat = assay: Prolonged administration for 180 consecutive days, tolerability; assay type: in vivo; settings: 50 mg/kg/die for 180 consecutive days
# [3] = ip, read-out: DL50 by i.p. administration
# [4] = oral, read-out: DL50 by oral administration
smiles,measurement,setting,value
"CC(C(=O)O)C1=CCCc2ccccc21 (stereo not drawn) [1.620, α-methyl-α-(3,4-dihydro-1-naphthyl)-acetic acid]",Flow,"Wistar rats; 25 mg/kg i.d., 0 (base hour)","2,66±0,16 ml/kg/h"
same,Flow,"Wistar rats; 25 mg/kg i.d., 1 h","4,24±0,25 ml/kg/h"
same,Flow,"Wistar rats; 25 mg/kg i.d., 2 h","3,21±0,10 ml/kg/h"
same,Flow,"Wistar rats; 25 mg/kg i.d., 3 h","2,89±0,10 ml/kg/h"
same,Flow,"Wistar rats; 25 mg/kg i.d., 4 h","2,44±0,15 ml/kg/h"
same,Flow,"Wistar rats; 25 mg/kg i.d., 5 h","2,20±0,14 ml/kg/h"
same,Flow,"Wistar rats; 25 mg/kg i.d., 6 h","1,68±0,05 ml/kg/h"
same,Flow,"Wistar rats; 25 mg/kg p.o., 0 (base hour)","3,05±0,33 ml/kg/h"
same,Flow,"Wistar rats; 25 mg/kg p.o., 1h","3,89±0,47 ml/kg/h"
same,Flow,"Wistar rats; 25 mg/kg p.o., 2h","3,13±0,24 ml/kg/h"
same,Flow,"Wistar rats; 25 mg/kg p.o., 3h","2,84±0,21 ml/kg/h"
same,Flow,"Wistar rats; 25 mg/kg p.o., 4h","2,35±0,19 ml/kg/h"
same,Flow,"Wistar rats; 25 mg/kg p.o., 5h","2,05±0,21 ml/kg/h"
same,Flow,"Wistar rats; 25 mg/kg p.o., 6h","1,87±0,39 ml/kg/h"
same,Flow,"Wistar rats; 50 mg/kg i.d., 0 (base hour)","2,04±0,11 ml/kg/h"
same,Flow,"Wistar rats; 50 mg/kg i.d., 1 h","3,90±0,28 ml/kg/h"
same,Flow,"Wistar rats; 50 mg/kg i.d., 2 h","3,57±0,16 ml/kg/h"
same,Flow,"Wistar rats; 50 mg/kg i.d., 3 h","2,69±0,09 ml/kg/h"
same,Flow,"Wistar rats; 50 mg/kg i.d., 4 h","2,20±0,07 ml/kg/h"
same,Flow,"Wistar rats; 50 mg/kg i.d., 5 h","2,00±0,10 ml/kg/h"
same,Flow,"Wistar rats; 50 mg/kg i.d., 6 h","1,63±0,08 ml/kg/h"
same,Flow,"Wistar rats; 50 mg/kg p.o., 0 (base hour)","2,76±0,09 ml/kg/h"
same,Flow,"Wistar rats; 50 mg/kg p.o., 1h","4,90±0,16 ml/kg/h"
same,Flow,"Wistar rats; 50 mg/kg p.o., 2h","3,74±0,13 ml/kg/h"
same,Flow,"Wistar rats; 50 mg/kg p.o., 3h","3,34±0,13 ml/kg/h"
same,Flow,"Wistar rats; 50 mg/kg p.o., 4h","2,73±0,07 ml/kg/h"
same,Flow,"Wistar rats; 50 mg/kg p.o., 5h","2,60±0,08 ml/kg/h"
same,Flow,"Wistar rats; 50 mg/kg p.o., 6h","2,25±0,09 ml/kg/h"
same,Flow,"Wistar rats; 100 mg/kg i.d., 0 (base hour)","2,53±0,09 ml/kg/h"
same,Flow,"Wistar rats; 100 mg/kg i.d., 1 h","6,61±0,27 ml/kg/h"
same,Flow,"Wistar rats; 100 mg/kg i.d., 2 h","5,94±0,23 ml/kg/h"
same,Flow,"Wistar rats; 100 mg/kg i.d., 3 h","4,12±0,14 ml/kg/h"
same,Flow,"Wistar rats; 100 mg/kg i.d., 4 h","3,23±0,07 ml/kg/h"
same,Flow,"Wistar rats; 100 mg/kg i.d., 5 h","2,74±0,06 ml/kg/h"
same,Flow,"Wistar rats; 100 mg/kg i.d., 6 h","2,23±0,06 ml/kg/h"
same,Flow,"Wistar rats; 100 mg/kg p.o., 0 (base hour)","2,40±0,23 ml/kg/h"
same,Flow,"Wistar rats; 100 mg/kg p.o., 1h","4,44±0,28 ml/kg/h"
same,Flow,"Wistar rats; 100 mg/kg p.o., 2h","4,95±0,39 ml/kg/h"
same,Flow,"Wistar rats; 100 mg/kg p.o., 3h","4,10±0,32 ml/kg/h"
same,Flow,"Wistar rats; 100 mg/kg p.o., 4h","3,10±0,31 ml/kg/h"
same,Flow,"Wistar rats; 100 mg/kg p.o., 5h","2,79±0,23 ml/kg/h"
same,Flow,"Wistar rats; 100 mg/kg p.o., 6h","2,33±0.25 ml/kg/h"
same,Peak choleresis time of appearance,Wistar rats; 200 mg/kg p.o. (dose given for 1620 only),2nd hour
same,Peak choleresis % increase,"Wistar rats; 200 mg/kg p.o. (dose given for 1620 only), increase over controls as percentage of base choleresis",135%
same,Duration index,"Wistar rats; 200 mg/kg p.o. (dose given for 1620 only), time for halving the maximum choleresis increase",240'
same,Flow,"Wistar rats; 200 mg/kg p.o., 0 (base hour)","2,46±0,12 ml/kg/h"
same,Flow,"Wistar rats; 200 mg/kg p.o., 1h","5,53±0,30 ml/kg/h"
same,Flow,"Wistar rats; 200 mg/kg p.o., 2h","5,78±0,29 ml/kg/h"
same,Flow,"Wistar rats; 200 mg/kg p.o., 3h","5,02±0,34 ml/kg/h"
same,Flow,"Wistar rats; 200 mg/kg p.o., 4h","4,77±0,57 ml/kg/h"
same,Flow,"Wistar rats; 200 mg/kg p.o., 5h","4,19±0,25 ml/kg/h"
same,Flow,"Wistar rats; 200 mg/kg p.o., 6h","3,39±0,14 ml/kg/h"
same,ml of bile flow ± s.e.,"Wistar rats; oral by gastric probe 25 mg/kg, 0 (base values)","2,6±0,20 ml"
same,ml of bile flow ± s.e.,"Wistar rats; oral by gastric probe 25 mg/kg, 1 h","3,2±0,14 ml"
same,ml of bile flow ± s.e.,"Wistar rats; oral by gastric probe 25 mg/kg, 2 h","2,7±0,10 ml"
same,ml of bile flow ± s.e.,"Wistar rats; oral by gastric probe 25 mg/kg, 3 h","2,6±0,21 ml"
same,ml of bile flow ± s.e.,"Wistar rats; oral by gastric probe 25 mg/kg, 4 h","1,9±0,11 ml"
same,ml of bile flow ± s.e.,"Wistar rats; oral by gastric probe 25 mg/kg, 5 h","1,6±0,20 ml"
same,ml of bile flow ± s.e.,"Wistar rats; oral by gastric probe 25 mg/kg, 6 h","1,6±0,21 ml"
same,ml of bile flow ± s.e.,"Wistar rats; oral by gastric probe 50 mg/kg, 0 (base values)","2,8±0,19 ml"
same,ml of bile flow ± s.e.,"Wistar rats; oral by gastric probe 50 mg/kg, 1 h","3,7±0,31 ml"
same,ml of bile flow ± s.e.,"Wistar rats; oral by gastric probe 50 mg/kg, 2 h","3,4±0,22 ml"
same,ml of bile flow ± s.e.,"Wistar rats; oral by gastric probe 50 mg/kg, 3 h","3,2±0,19 ml"
same,ml of bile flow ± s.e.,"Wistar rats; oral by gastric probe 50 mg/kg, 4 h","3,0±0,18 ml"
same,ml of bile flow ± s.e.,"Wistar rats; oral by gastric probe 50 mg/kg, 5 h","2,8±0,14 ml"
same,ml of bile flow ± s.e.,"Wistar rats; oral by gastric probe 50 mg/kg, 6 h","2,2±0,18 ml"
same,ml of bile flow ± s.e.,"Wistar rats; oral by gastric probe 100 mg/kg, 0 (base values)","2,5±0,16 ml"
same,ml of bile flow ± s.e.,"Wistar rats; oral by gastric probe 100 mg/kg, 1 h","4,8±0,26 ml"
same,ml of bile flow ± s.e.,"Wistar rats; oral by gastric probe 100 mg/kg, 2 h","3,7±0,31 ml"
same,ml of bile flow ± s.e.,"Wistar rats; oral by gastric probe 100 mg/kg, 3 h","3,5±0,20 ml"
same,ml of bile flow ± s.e.,"Wistar rats; oral by gastric probe 100 mg/kg, 4 h","3,2±0,32 ml"
same,ml of bile flow ± s.e.,"Wistar rats; oral by gastric probe 100 mg/kg, 5 h","2,9±0,22 ml"
same,ml of bile flow ± s.e.,"Wistar rats; oral by gastric probe 100 mg/kg, 6 h","2,7±0,23 ml"
same,LD50,[1]; [3],1380 mg/kg
same,LD50,[1]; [4],1660 mg/kg
same,LD50,[2]; [3],1340 mg/kg
same,LD50,[2]; [4],1720 mg/kg
same,Tolerability on prolonged administration,rat,well tolerated
